Results as given in patent US20260174829A1, “METHODS OF REDUCING TYPE 2 CYTOKINE-MEDIATED INFLAMMATION USING NEUROMEDIN PEPTIDES” (Rutgers, The State University of New Jersey, priority 2018, published 2026).

What was measured:
Type in all cases: cell-based, mouse
ILC2s = assay: RNA sequencing of ILC2s cultured overnight with or without Nmb; conditions: gene expression, NMB treated vs untreated ILC2s
Protocol: To gain further insight into how NMB might alter lymphocyte activation, ILC2s were sort-purified from the lungs of Nb-infected mice and cultured overnight with survival cytokines (IL-2, IL-7), with or without Nmb. Then, gene expression was evaluated by RNA sequencing analysis. […] This allowed for identification of NMB signaling pathways.

lung ILC2s = assay: Sort-purified lung ILC2 in vitro cultures with Nmb, IL-5/IL-13 ELISA
Protocol: FIGS. 6A-6E. Nmb suppresses type 2 cytokine responses. (A), Nb-infected mice were treated with PBS or Nmb (i.t.) and ILC2s in the BAL were quantified. (B) Expression of IL-5 and IL-13 in the lungs of PBS or Nmb-treated mice was determined on day 7 post-Nb by Real-time PCR. (C) Eosinophils in the BAL were quantified and (D) worm burdens were determined on day 7 post-Nb infection. ILC2s were sort-purified from the lungs of control or baso-dep mice on day 7 post-Nb and cultured (O/N) with IL-2 and IL-7 in the presence or absence of Nmb and (E) IL-5 and IL-13 levels in culture supernatants were determined by ELISA. P values were determined by two-tailed Student's t-tests.
FIGS. 10A-10B. NMB inhibits type 2 cytokine production from IL-33 activated ILC2. ILC2s were sort-purified from the lungs of Nb-infected mice (day 7) and cultured with survival cytokines (IL-2, IL-7) and in the presence or absence of Nmb and/or IL-33. Following overnight culture, supernatants were tested for the presence of IL-5 (FIG. 10A) and IL-13 (FIG. 10B) by standard ELISA. Statistical comparisons were done using a Student's t-test.
Lung cells were isolated from the lungs of WT or basophil-depleted mice on day 7 post-N. brasiliensis infection. ILC populations (CD45^+Lin^−CD90^+CD127^+) were sort-purified and 10,000 cells were cultured in the presence of 100 ng/mL of IL-2, IL-7 and vehicle (PBS) or 10 μg/mL of Neuromedin B for 24 hours. IL-5 and IL-13 were quantified in cell-free supernatants by ELISA.
These studies illustrate that Nb-induced ILC2 responses are exaggerated in the absence of basophils. […] However, ILC2 responses are also known to be regulated by several other factors following a Nb challenge. Specifically, IL-33 is reported to be a critical regulator of lung ILC2 responses post-Nb infection (24). To address whether altered ILC2 activity in the absence of basophils is a result of reduced availability of IL-33, rather than alterations in NMB-NMBR signaling pathways, ILC2s were sort-purified from the lungs of Nb-infected mice (day 7) and cultured with survival cytokines (IL-2, IL-7) and/or IL-33 and NMB. Following overnight culture, supernatants were tested for the presence of IL-5 and IL-13 by standard ELISA. Statistical comparisons were done using a Student's t-test.

NMBR expression by ILC2s = assay: NMBR expression by cultured lung ILC2s, flow cytometry; conditions: ILC2s day 7 post-Nb, survival and/or activating cytokines, day 4 post-culture
From the text: FIG. 9. Basophils regulate NMBR expression. ILC2s were sort-purified from the lung of Nb-infected mice (day 7) and stimulated with survival cytokines (IL-7 and IL-2) and also with activated basophils, IL-4 or IL-33 overnight. NMBR expression was monitored by flow cytometric analysis post-culture. Data are presented as […] mean fluorescent intensity (GMFI). Statistical comparisons were done using a Student's t-test.
FIG. 14. Prostaglandin E2 upregulates expression of NMBR on lymphocytes. Lung ILC2s were sort-purified from the lungs of mice on day 7 post-Nb and cultured with a combination of survival cytokines (IL-2 and IL-7) and/or activating cytokines (IL-25 and IL-33). In addition, cultures were treated with NMB or prostaglandin E2 (PGE2) and the expression of NMBR was measured by flow cytometric analysis on day 4 post-culture. Statistical analysis was performed using a student's t-test. Negative NMBR staining as determined by an isotype control antibody is also shown (Isot).
NMBR expression by lung ILC2s was reduced when basophils are depleted following an Nb infection. To determine whether basophils directly mediate expression of NMBR or whether they operate through intermediate pathways, ILC2s were sort-purified from the lungs of Nb-infected mice (day 7) and cultured with the survival cytokines IL-2 and IL-7. Additionally, the ILC2s were cultured with activated basophils, IL-4, or IL-33 overnight. NMBR expression was subsequently monitored by flow cytometric analysis post-culture.
To better determine the mechanisms through which basophils regulate expression of NMBR on lymphocytes, ILC2s were cultured with a combination of survival and activating cytokines in the presence or absence of NMB or prostaglandin E2 (PGE2).

[1] = ILC2s day 7 post-Nb, IL-2 and IL-7, overnight, no IL-33, ELISA
[2] = ILC2s from basophil-deficient Nb-infected mice, overnight with IL-2 and IL-7, ELISA
[3] = ILC2s from basophil-sufficient Nb-infected mice, overnight with IL-2 and IL-7, ELISA

## H2N-GNLWATGHFM-amide [Nmb]
ILC2s
  Fold change Gm10031: −6.203
  Fold change Gm14288: −25.43
  Fold change Hgs_2: −1.893
  Fold change Ighg1: 253.6
  Fold change Ighg2b: 276
  Fold change Igkv1-135: 47.49
  Fold change Igkv8-28: 43.8
  Fold change Igkv17-127: 800.9
  Fold change Il1b: 3.263
  Fold change Klra7: −1.984
  Fold change Ly6c2: −2.369
  Fold change Mcpt2: −11.86
  Fold change Nkg7: −1.895
  Fold change P2rx7: −2.149
  Fold change Serpinb2: 5.696
  Fold change Sprr2a2: 37.85
  Fold change Tsix: 2.833
  Fold change Xist: 3.077
Lung ILC2s; ILC2s day 7 post-Nb, IL-2, IL-7 and IL-33, overnight, ELISA
  type 2 cytokines (IL-5 and IL-13) from IL-33 activated ILC2s: significant reductions
Lung ILC2s; [1]
  IL-5 production from ILC2s at steady-state: significantly reduce
  IL-13 production from ILC2s at steady-state: significantly reduce
Lung ILC2s; [2]
  IL-5 production by ILC2s (significantly reduced or not): not
  IL-13 production by ILC2s (significantly reduced or not): not
Lung ILC2s; [3]
  IL-5 production by ILC2s: significantly reduced
  IL-13 production by ILC2s: significantly reduced
NMBR expression by ILC2s
  NMBR expression by ILC2s: failed to upregulate
